Assay results as given in PubChem BioAssay (NCI).
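How tested: cells in 96-well plates exposed to compound for 48 hours at five concentrations. GI50 marks 50% less growth. TGI marks complete inhibition of growth.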

Tests used:
Assay in all cases: inhibition of tumour cell growth, NCI panel, 48 h
DLD-1 colon = test system: DLD-1 colon
DMS 273 small cell lung = test system: DMS 273 small cell lung
M19-MEL melanoma = test system: M19-MEL melanoma
XF 498 CNS = test system: XF 498 CNS
KM20L2 colon = test system: KM20L2 colon
HS 578T breast = test system: HS 578T breast
MDA-MB-435 = test system: MDA-MB-435
MDA-N = test system: MDA-N
RXF-631 renal = test system: RXF-631 renal

SMILES | TGI (DLD-1 colon) | TGI (DMS 273 small cell lung) | TGI (M19-MEL melanoma) | GI50 (HS 578T breast) | TGI (HS 578T breast) | GI50 (MDA-MB-435) | TGI (MDA-MB-435) | further results
NNC(=O)/C(=C/c1ccc(Cl)cc1Cl)NC(=O)c1ccccc1 | > 100 µM | > 100 µM | > 100 µM |  |  |  |  | TGI (XF 498 CNS): > 100 µM
Cc1ccc(C(=O)c2nnc(C(=O)c3ccc(C)cc3)nn2)cc1 | > 100 µM | > 100 µM | 61.5 µM |  |  |  |  | TGI (KM20L2 colon): > 100 µM
COc1ccc(/C=C2\CCCC3=C2N=C2SC(C)=NN2C3c2ccc(OC)c(OC)c2)cc1OC (centres undefined) |  |  |  | 30.4 µM | > 100 µM | 3.27 µM | 69.3 µM | 
COc1ccc(/C=C(/C#N)C(N)=O)cc1OC |  |  |  |  | > 100 µM |  | > 100 µM | TGI (MDA-N): > 100 µM
Nc1nc2c(c3ncncc13)C(c1cccc(C(F)(F)F)c1)Cc1ncncc1-2 (centres undefined) |  |  |  | 4.71 µM | 45.9 µM |  |  | 
CC1OC(O[C@@H]2OC=C(C=O)[C@@]3(O)CC[C@H](C)[C@@H]23)C(O)C(O)C1O (some centres undefined) |  |  |  |  | > 100 µM |  | > 100 µM | TGI (MDA-N): > 100 µM
O=C(/C=C/c1ccccc1)c1cc(Br)ccc1O |  |  |  |  | 59.3 µM |  | 32.6 µM | TGI (MDA-N): 33.3 µM
CC#C[C@]1(O)CC[C@H]2[C@@H]3CCC4=CC(=O)CCC4=C3[C@@H](c3ccc4c(c3)OCO4)C[C@@]21C |  |  |  | 101 µM | 537 µM | 106 µM | 390 µM | 
C[C@@H]1C[C@H]2CC[C@H](O2)[C@H](C)C(=O)O[C@@H](C)C[C@@H]2CC[C@@H](O2)[C@@H](C)C(=O)O[C@H](C)C[C@H]2CC[C@H](O2)[C@H](C)C(=O)O[C@@H](C)C[C@@H]2CC[C@@H](O2)[C@@H](C)C(=O)O1 |  |  |  |  | 54.3 µM |  | > 49.3 µM | TGI (MDA-N): > 100 µM
Cc1c(C(=O)C/C(=N\O)C(=O)Nc2cc(Cl)c(Cl)cc2Cl)[n+](=O)c2ccccc2n1[O-] | 81.8 µM | 38 µM | 5.1 µM |  |  |  |  | TGI (KM20L2 colon): 41.4 µM; TGI (XF 498 CNS): 46.8 µM
Nc1ccccc1C#C/C=C\C#Cc1cccs1 |  |  |  | 15.2 µM | 41.8 µM | 2.81 µM | 12.2 µM | 
COc1ccc(-c2ccc(/C=N/n3c(COc4ccc(Cl)cc4Cl)nn(CN4CCOCC4)c3=S)o2)c([N+](=O)[O-])c1 |  |  |  |  |  | 18.6 µM | 51.5 µM | 
O=C1c2cccnc2C(=O)c2nc3cc(N4CCN(C5CC5)CC4)ccc3nc21 |  |  |  | 0.37 µM | 3.18 µM | 0.169 µM | 0.328 µM | 
Cn1cccc1-c1cc(-c2cccs2)nc(N)c1C#N |  |  |  | > 100 µM | > 100 µM | > 100 µM | > 100 µM | 
O=C(CN1CCOCC1)Nc1nc(-c2ccc(Cl)cc2)cs1 | > 100 µM | 41.8 µM | > 100 µM |  |  |  |  | TGI (XF 498 CNS): 26.9 µM
N#Cc1c(N2CCCC2)[nH]c(=O)c(C(c2c(Cl)cccc2Cl)c2c(O)c(C#N)c(N3CCCC3)[nH]c2=O)c1O |  |  |  | 2.75 µM | 19.1 µM | 9.6 µM | 25.2 µM | 
CSc1ccc(C2OC(=O)c3ccccc32)c2ccccc12 (centres undefined) | > 100 µM |  | > 100 µM |  |  |  |  | TGI (KM20L2 colon): > 100 µM; TGI (RXF-631 renal): > 100 µM; TGI (XF 498 CNS): > 100 µM
C/C(=N\NS(=O)(=O)c1ccccc1)c1ccc(Cl)c(Cl)c1 | > 100 µM | > 100 µM | > 100 µM |  |  |  |  | TGI (KM20L2 colon): > 100 µM; TGI (XF 498 CNS): > 100 µM

SMILES | TGI (DLD-1 colon) | TGI (DMS 273 small cell lung) | TGI (M19-MEL melanoma) | GI50 (HS 578T breast) | TGI (HS 578T breast) | GI50 (MDA-MB-435) | TGI (MDA-MB-435) | further results
Cn1cc(-c2ccc3occ(-c4cccc(-c5ccncc5)c4)c3n2)cn1 |  |  |  | 0.377 µM | 6.18 µM | 0.176 µM | 0.525 µM | 
NC1C[C@H](n2cc(/C=C/Br)c(=O)[nH]c2=O)C[C@@H]1CO (some centres undefined) | > 100 µM | > 100 µM | > 100 µM |  |  |  |  | TGI (KM20L2 colon): > 100 µM
COC(=O)[C@H](C[C@H](Cc1ccccc1)NC(=O)c1csc([C@@H](C[C@H](C(C)C)N(C)C(=O)[C@@H](NC(=O)[C@H]2CCCCN2C)C(C)C)OC(C)=O)n1)NC(=O)OCc1ccccc1 |  |  |  | < 0.0009 µM | > 4.93 µM | < 0.0009 µM | < 0.0009 µM | 
Nc1ccn(CCNCCn2cnc3nc(N)[nH]c(=O)c32)c(=O)n1 | > 100 µM |  |  |  |  |  |  | TGI (KM20L2 colon): > 100 µM; TGI (RXF-631 renal): > 100 µM; TGI (XF 498 CNS): > 100 µM
CC(C)c1cc(-c2n[nH]c(=O)n2-c2ccc3c(ccn3C)c2)c(O)cc1O |  |  |  | 0.682 µM | 90.1 µM | < 0.0191 µM | 15.6 µM | 
COc1ccc(OC)c(/C=C2\SC(=S)NC2=O)c1 |  |  |  | 20.7 µM | 55.5 µM | 39 µM | > 100 µM | 
CCN(CC)c1ccc(C(=O)c2ccccc2C(=O)O)c(O)c1 |  | > 100 µM | > 100 µM |  |  |  |  | TGI (XF 498 CNS): > 100 µM
O=C(O)/C=C\C(=O)N1C/C(=C\c2ccccc2Cl)C(=O)/C(=C/c2ccccc2Cl)C1 |  |  |  |  |  | 3.34 µM | 13.6 µM | 
COC(=O)[C@@]1(C)CC[C@]2(C)CC[C@]3(C)C4=CC=C5C(=CC(=O)C(O)=C5C)[C@]4(C)[C@@H](O)C[C@@]3(C)[C@@H]2C1 |  |  |  | 15.1 µM | 38 µM | 10.6 µM | 21.5 µM | 
COc1ccc2nc(-c3cccs3)cc(C(O)CN3CCSCC3)c2c1 (centres undefined) | > 100 µM | 40 µM | 58.6 µM |  |  |  |  | TGI (KM20L2 colon): 45.5 µM; TGI (XF 498 CNS): 32.1 µM
CN(C)CCCNC(CC#N)CCC#N (centres undefined) |  |  |  |  | > 10 µM |  | > 10 µM | TGI (MDA-N): > 10 µM
CCOC(=O)c1cc(NS(=O)(=O)c2ccccc2)cc(C(=O)OCC)c1 |  |  |  | > 100 µM | > 100 µM | > 100 µM | > 100 µM | 
COC(=O)C(=O)C1(CCC(C)=O)c2ccccc2-c2c(C)ccc(C)c21 (centres undefined) | > 100 µM | > 100 µM | > 100 µM |  |  |  |  | TGI (KM20L2 colon): > 100 µM
CC1SC2=NC3=C(c4ccccc4C3=O)C(c3ccc(F)cc3)N2C1=O (centres undefined) | > 100 µM | > 100 µM | > 100 µM |  |  |  |  | TGI (KM20L2 colon): > 100 µM; TGI (XF 498 CNS): > 100 µM
COc1ccc2c(c1)cn1c3ccc(O)cc3nc(N)c21 |  |  |  | 1.48 µM | 33.4 µM | 0.0217 µM | 0.0749 µM | 
O=C(N/C(=C\c1ccc2c(c1)OCO2)c1nc2ccccc2[nH]1)c1ccccc1 | > 100 µM | > 100 µM | 19.8 µM |  |  |  |  | TGI (KM20L2 colon): > 89.7 µM; TGI (XF 498 CNS): 34 µM
Cc1ccc(-c2cn3ccnc3c(-c3ccc(Cl)cc3)n2)cc1 |  |  |  | 0.115 µM | 9.39 µM | < 0.0126 µM | 0.185 µM | 
